Measurements: ChEMBL document CHEMBL3046032, “Synthesis and biological evaluation of novel AM80 derivatives as antileukemic agents” (Med Chem Res, 2013)

Legend:
Type in all cases: functional, cell-based
[1] = tested on: NB-4; assay: Cytotoxicity against Homo sapiens (human) NB4 cells assessed as growth inhibition after 48 hr by MTT assay; conditions: NB-4, 48 h
[2] = tested on: HL-60; assay: Cytotoxicity against Homo sapiens (human) HL60 cells assessed as growth inhibition after 48 hr by MTT assay; conditions: HL-60, 48 h
[3] = tested on: K562; assay: Cytotoxicity against Homo sapiens (human) K562 cells assessed as growth inhibition after 48 hr by MTT assay; conditions: K562, 48 h

SMILES	IC50 [1] [µM]	IC50 [2] [µM]	IC50 [3] [µM]
CCCC(CCC)C(=O)OCCNC(=O)c1ccc(C(=O)Nc2ccc3c(c2)C(C)(C)CCC3(C)C)cc1	> 1000	> 1000	> 1000
Cc1cc2c(cc1C(=O)c1ccc(C(=O)OCCOC(=O)c3ccc(C(=O)Nc4ccc5c(c4)C(C)(C)CCC5(C)C)cc3)cc1)C(C)(C)CCC2(C)C	67	6.83	39.9
Cc1cc2c(cc1C(=O)c1ccc(C(=O)NCCOC(=O)c3ccc(C(=O)Nc4ccc5c(c4)C(C)(C)CCC5(C)C)cc3)cc1)C(C)(C)CCC2(C)C	72.4	37.5	247
CCCC(CCC)C(=O)OCCOC(=O)c1ccc(C(=O)Nc2ccc3c(c2)C(C)(C)CCC3(C)C)cc1	> 1000	256	664
CCCC(=O)OCCCCOC(=O)c1ccc(C(=O)Nc2ccc3c(c2)C(C)(C)CCC3(C)C)cc1	23.2	7.32	92.6
CCCC(=O)OCCOC(=O)c1ccc(C(=O)Nc2ccc3c(c2)C(C)(C)CCC3(C)C)cc1	11	6.29	18.6
C=C(c1ccc(C(=O)OCCCCOC(=O)c2ccc(C(=O)Nc3ccc4c(c3)C(C)(C)CCC4(C)C)cc2)cc1)c1cc2c(cc1C)C(C)(C)CCC2(C)C	650	25.1	> 1000
C=C(c1ccc(C(=O)OCCOC(=O)c2ccc(C(=O)Nc3ccc4c(c3)C(C)(C)CCC4(C)C)cc2)cc1)c1cc2c(cc1C)C(C)(C)CCC2(C)C	> 1000	30.7	504
C=C(c1ccc(C(=O)OCCCOC(=O)c2ccc(C(=O)Nc3ccc4c(c3)C(C)(C)CCC4(C)C)cc2)cc1)c1cc2c(cc1C)C(C)(C)CCC2(C)C	212	19.2	> 1000
CCCC(CCC)C(=O)OCCCCOC(=O)c1ccc(C(=O)Nc2ccc3c(c2)C(C)(C)CCC3(C)C)cc1	> 1000	914	> 1000
C=C(c1ccc(C(=O)NCCNC(=O)c2ccc(C(=O)Nc3ccc4c(c3)C(C)(C)CCC4(C)C)cc2)cc1)c1cc2c(cc1C)C(C)(C)CCC2(C)C	569	14.8	73.5
CCCC(CCC)C(=O)NCCNC(=O)c1ccc(C(=O)Nc2ccc3c(c2)C(C)(C)CCC3(C)C)cc1	5.69	12.4	83.7
Cc1cc2c(cc1C(=O)c1ccc(C(=O)OCCCCOC(=O)c3ccc(C(=O)Nc4ccc5c(c4)C(C)(C)CCC5(C)C)cc3)cc1)C(C)(C)CCC2(C)C	147	24.7	84
Cc1cc2c(cc1C(=O)c1ccc(C(=O)NCCNC(=O)c3ccc(C(=O)Nc4ccc5c(c4)C(C)(C)CCC5(C)C)cc3)cc1)C(C)(C)CCC2(C)C	104	14.3	39.6
Cc1cc2c(cc1C(=O)c1ccc(C(=O)OCCCOC(=O)c3ccc(C(=O)Nc4ccc5c(c4)C(C)(C)CCC5(C)C)cc3)cc1)C(C)(C)CCC2(C)C	112	14.9	49.1
CCCC(=O)NCCNC(=O)c1ccc(C(=O)Nc2ccc3c(c2)C(C)(C)CCC3(C)C)cc1	3.26	5.61	7.98
C=C(c1ccc(C(=O)NCCOC(=O)c2ccc(C(=O)Nc3ccc4c(c3)C(C)(C)CCC4(C)C)cc2)cc1)c1cc2c(cc1C)C(C)(C)CCC2(C)C	> 1000	504	> 1000
Cc1cc2c(cc1C(=O)c1ccc(C(=O)NCCCCCCNC(=O)c3ccc(C(=O)Nc4ccc5c(c4)C(C)(C)CCC5(C)C)cc3)cc1)C(C)(C)CCC2(C)C	> 1000	95.4	95.4
CCCC(CCC)C(=O)OCCCOC(=O)c1ccc(C(=O)Nc2ccc3c(c2)C(C)(C)CCC3(C)C)cc1	> 1000	835	> 1000
C=C(c1ccc(C(=O)NCCCCCCNC(=O)c2ccc(C(=O)Nc3ccc4c(c3)C(C)(C)CCC4(C)C)cc2)cc1)c1cc2c(cc1C)C(C)(C)CCC2(C)C	> 1000	70.7	294
CCCC(=O)OCCCOC(=O)c1ccc(C(=O)Nc2ccc3c(c2)C(C)(C)CCC3(C)C)cc1	5.75	2.99	4.57
CCCC(=O)OCCNC(=O)c1ccc(C(=O)Nc2ccc3c(c2)C(C)(C)CCC3(C)C)cc1	213	36.8	25.4
